From patent US4393228A, “Epoxysuccinic acid derivatives” (Taisho Pharmaceutical Co., Ltd., priority 1977, dated 1983)
Like-named read-outs stand apart in the source and are kept apart here.

Key:
papain = target: T1, papain (Carica papaya, UniProt P00784); test: Papain inhibitory activity (milk casein digestion); type: biochemical; conditions: papain 80 μg/ml 0.5 ml, cysteine, pH 6.8, 1% milk casein, 40° C., 10 minutes
T1 construct: purchased Sigma Chem. Co
T1 sequence (P00784 134-345): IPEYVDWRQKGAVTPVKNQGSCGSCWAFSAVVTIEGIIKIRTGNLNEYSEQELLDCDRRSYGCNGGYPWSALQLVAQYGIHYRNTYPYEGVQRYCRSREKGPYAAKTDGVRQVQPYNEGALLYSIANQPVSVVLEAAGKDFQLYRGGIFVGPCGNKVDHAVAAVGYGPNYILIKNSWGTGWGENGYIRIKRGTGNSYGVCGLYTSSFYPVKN
In short: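 Papain (80 μg/ml stock) preincubated 15 min at 40 °C with inhibitor, cysteine/EDTA activator and phosphate buffer pH 6.8. Then 1% milk casein digested 10 min at 40 °C, stopped with trichloroacetic acid and filtered; filtrate absorbance at 280 nm gives percent inhibition versus no-inhibitor control.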

[1] = test system: adjuvant induced polyarthritis; test: Inhibition of adjuvant induced polyarthritis in rats (hind paw volume); type: in vivo, Sprague Dawley rat; conditions: Rattus norvegicus
Procedure: Effect of the compounds of this invention on the development of adjuvant-induced polyarthritis in rats was assayed as follows: Adjuvant arthritis was produced by a single intracutaneous injection of 0.1 ml of the adjuvant mixture containing heat-killed mycobacteria of the human Aoyama B strain suspended in liquid paraffin in 0.6% in the middle part of the distal tail of Sprague Dawley rat (female, 8 weeks old). […] The activity was measured as the mean inhibition percent for the increase of the hind paw volume of the 8 rats/group on the days 17 and 23 on which the legs become inflamed and reach maximum volumes. The compound Nos. in Table 2 are as defined in Examples as described hereinafter.

[2] = prior art compound; cited from earlier work
thiol proteases = conditions: U.S. Pat. No. 3,911,111; cited from earlier work
[3] = U.S. Pat. No. 3,911,111; cited from earlier work
[4] = 408 h, 100 mg/kg of body weight, daily oral, day 17, read-out: Inhibition % 17 days (increase of hind paw volume)
[5] = 552 h, 100 mg/kg of body weight, daily oral, day 23, read-out: Inhibition % 23 days (increase of hind paw volume)

Row | SMILES | ID50 (amount of inhibitor for 50% inhibition) (papain) | inhibition in vivo at 100 mg/kg [1, 4] | inhibition in vivo at 100 mg/kg [1, 5] | acceleration of vascular permeability (side effect) [2] | thiol protease inhibitory activity (thiol proteases) | anti-inflammatory activity [3] | inhibition in vivo at 100 mg/kg ([1]; po, 408 h, read-out: Inhibition % 17 days (increase of hind paw volume)) | inhibition in vivo at 100 mg/kg ([1]; po, 552 h, read-out: Inhibition % 23 days (increase of hind paw volume))
1 | O=C(OCC1CCCO1)[C@@H]1O[C@H]1C(=O)OCC1CCCO1 (relative stereo) [EP-75, di-tetrahydro-2-furanmethyl epoxysuccinate] | 1.65 γ | 89.6% | 41% |  |  |  |  | 
2 | O=C(OCCCc1ccccc1)[C@H]1O[C@@H]1C(=O)OCCCc1ccccc1 (relative stereo) [EP-131, di-3'-phenylpropyl epoxysuccinate] | 11.36 γ | 57.1% | 49.2% |  |  |  |  | 
3 | O=C(O)[C@@H]1O[C@H]1C(=O)OC1CCCC1 (relative stereo) [EP-26, cyclopentyl potassium epoxysuccinate] | 0.08 γ | 52% | 55.5% |  |  |  |  | 
4 | O=C(OC1CCCCC1)[C@@H]1O[C@H]1C(=O)OC1CCCCC1 (relative stereo) [EP-1, dicyclohexyl epoxysuccinate] | 1.98 γ | 82.1% | 77% |  |  |  |  | 
5 | CCCCCOC(=O)[C@H]1O[C@@H]1C(=O)O (relative stereo) [EP-144, n-amyl potassium epoxysuccinate] | 0.34 γ | 33.3% | 32.1% |  |  |  |  | 
6 | CC(C)C[C@H](NC(=O)[C@H]1O[C@@H]1C(=O)O)C(=O)NCCCCN=C(N)N [E-64] |  |  |  | acceleration of vascular permeability | possessing thiol protease inhibitory activity | anti-inflammatory activity |  | 
7 | O=C(O)[C@H]1O[C@@H]1C(=O)OCc1ccccc1 (relative stereo) [EP-143, benzyl potassium epoxysuccinate] | 0.15 γ | 45.1% | 35.6% |  |  |  |  | 
8 | CCOC(=O)[C@H]1O[C@@H]1C(=O)O (relative stereo) [EP-137, ethyl potassium epoxysuccinate] | 2.08 γ | 40% | 38.5% |  |  |  |  | 
9 | COc1ccc(COC(=O)[C@@H]2O[C@H]2C(=O)O)cc1 (relative stereo) [EP-102, p-methoxybenzyl potassium epoxysuccinate] | 0.36 γ | 28% | 31% |  |  |  |  | 
10 | O=C(O)[C@H]1O[C@@H]1C(=O)OCc1ccc(Cl)cc1 (relative stereo) [EP-116, p-chlorobenzyl potassium epoxysuccinate] | 0.32 γ | 35% | 33.5% |  |  |  |  | 
11 | O=C(OCc1cccs1)[C@@H]1O[C@H]1C(=O)OCc1cccs1 (relative stereo) [EP-79, di-2-thenyl epoxysuccinate] | 0.75 γ | 64.3% | 90.2% |  |  |  |  | 
12 | O=C(OC1CCCC1)[C@@H]1O[C@H]1C(=O)OC1CCCC1 (relative stereo) [EP-25, dicyclopentyl epoxysuccinate] | 3.03 γ | 52.6% | 77.8% |  |  |  |  | 
13 | O=C(OCc1cccc(F)c1)[C@H]1O[C@@H]1C(=O)OCc1cccc(F)c1 (relative stereo) [EP-121, di-m-fluorobenzyl epoxysuccinate] | 0.46 γ | 53.6% | 38.9% |  |  |  |  | 
14 | O=C(OCc1cccc2ccccc12)[C@@H]1O[C@H]1C(=O)OCc1cccc2ccccc12 (relative stereo) [EP-81, di-1'-naphthylmethyl epoxysuccinate] | 1.30 γ | 64.3% | 83.6% |  |  |  |  | 
15 | CC(C)C[C@H](NC(=O)C1OC1C(=O)[O-])C(=O)[O-].[K+].[K+] (stereo partly drawn) [EP-174, N-(3-carboxyoxirane-2-carbonyl)-L-leucine dipotassium salt] | 0.20 γ |  |  |  |  |  | 30.5% | 29%
